{"source": "patent US20250011725A1", "about": "“TISSUE-[…] CERAMIC TEMPLATE AND USES THEREOF” (Osteogene Bio Inc., priority 2023, published 2025)", "assay_type_in_all_cases": "cell-based", "key": {"[1]": {"system": "co-cultured osteoblast precursor MC3T3 and osteosarcoma cells", "test": "survival index of co-cultured cells after doxorubicin, 3D dynamic culture using a PCT (perfusion bioreactor)", "source_text": "FIG. 33 depicts a bioreactor system suitable for performing a therapeutic agent treatment test according to embodiments of the present disclosure. Reference numeral 902 represents a co-cultured 3D cancer model platform 902 including a PCT 101 (such as the one resulting from the co-culturing discussed above in connection with FIGS. 32A and 32B). The 3D cancer model platform 902 is inserted into a culture column 903 for dynamic therapeutic agent treatment. The culture column 903 is connected with a medium vessel 904 that is filled with a medium in which a therapeutic agent 901 is dissolved. Afterwards, a dynamic therapeutic agent treatment is employed for up to, but not limited to, about seven days. In an exemplary embodiment, the therapeutic agent 901 includes Doxorubicin with a concentration of about 0.5 mg/ml. However, the present disclosure is suitable for cancer treatment with various therapeutic agents including but not limited to Cisplatin, Methotrexate, Ifosfamide, Actinomycin D, Bleomycin, Vincristine, Cyclophosphamide, Paclitaxel, Carboplatin, or a combination of two more of the foregoing agents. In an exemplary embodiment, a flow rate of the therapeutic agent 901 medium into the culture column 903 is about 5 ml/min for about five minutes per day. […]"}, "[2]": {"system": "co-cultured osteoblast precursor MC3T3 and osteosarcoma cells", "test": "survival index of co-cultured cells after doxorubicin, 3D static culture using a PCT", "details": "3D static culture on PCT, 0.5 mg/ml doxorubicin", "source_text": "(§1) FIG. 37 depicts comparison of survival index of co-cultured cells onto a culture plate for 2D static culture without a porous ceramic template (PCT), 3D static culture using a PCT, and 3D dynamic culture using a PCT after treated with doxorubicin (DOX: therapeutic drug) for designated time. In this example, osteoblast precursor MC3T3 with 2.5×10^5 cell population and osteosarcoma with 1×10^5 cell population are deployed onto a 12 well culture plate for the 2D static culture. 2.5×10^5 MC3T3 cell and 1×10^5 osteosarcoma are also seeded onto a PCT that is placed in a 12 well culture plate for the 3D static culture. For the 3D dynamic culture, 2.5×10^5 MC3T3 cell and 1×10^5 osteosarcoma were seeded onto a PCT and held for two days under static culture condition, then relocated into a culture column and subjected to dynamic culture with doxorubicin (therapeutic agent) using a peristaltic perfusion pump. […] In this regard, the 3D dynamic culture system is considered an effective alternative method of mimicking in vivo cancer model for performing a therapeutic agent test and/or screening."}, "[3]": {"system": "co-cultured osteoblast precursor MC3T3 and osteosarcoma cells", "test": "survival index of co-cultured cells after doxorubicin, 2D static culture on culture plate without PCT", "details": "0.5 mg/ml doxorubicin", "source_text": "as §1"}}}
{"smiles": "COc1cccc2c1C(=O)c1c(O)c3c(c(O)c1C2=O)C[C@@](O)(C(=O)CO)C[C@@H]3O[C@H]1C[C@H](N)[C@H](O)[C@H](C)O1", "note": "[doxorubicin]", "values": [{"measurement": "reduction of survival index compared to control", "setting": "[1]; 3D dynamic culture on PCT, 0.5 mg/ml doxorubicin, 5 ml/min flow rate for five minutes per day, three days", "result": "not significant"}, {"measurement": "cell survival index, 3D dynamic culture in comparison with 3D static culture", "setting": "[1]; after doxorubicin treatment", "result": "significantly higher"}, {"measurement": "survival index compared to control", "setting": "[2]", "result": "significant reduction"}, {"measurement": "survival index compared to control", "setting": "[3]", "result": "significant reduction"}]}
